Experimental data reported in PMC11317440, “Soloxolone para-methylanilide effectively suppresses aggressive phenotype of glioblastoma cells including TGF-β1-induced glial-mesenchymal transition in vitro and inhibits growth of U87 glioblastoma xenografts in mice” (Frontiers in Pharmacology, 2024).

Columns and labels:
U87 cells [1] = experiment: Colony formation assay, U87 cells; assay type: cell-based, human; details: 10 days
Procedure: (§1) U87, U118 and EPNT-5 cells were seeded at a density of 200 cells/well in 96-well plates and treated with increasing concentrations of compound 7 (0–1,000 nM) dissolved in 10% FBS-containing DMEM (n = 5). On day 10, colonies were fixed with 4% formaldehyde and stained with crystal violet dye (0.1% w/v). Images were captured using the iBright 1,500 Imaging System (Invitrogen, USA) and the area of colonies with a minimum diameter of 100 µm was calculated using ImageJ. In the case of overlapping colonies, their total area was calculated. Finally, the area of the formed cell colonies was summed and normalized to the total colony area in the control.

[2] = test system: TGF-β1-treated U118 cells; experiment: Adhesion of U118 cells to culture plastic (TrypLE treatment, MTT); assay type: cell-based, human; details: TGF-β1 50 ng/mL, 7 50 nM, 48 h
Procedure: Adhesiveness of glioblastoma cells was assessed by two independent methods. First, cell adhesion to culture plastic was tested using a trypsin treatment assay, as previously described ([Sava et al., 2004]; [Mazuryk et al., 2015]; [van Dijk et al., 2017]). Briefly, U87 and U118 cells (10,000 cells per well of a 96-well plate, n = 4) were cultured with TGF-β1 (50 ng/mL) and non-toxic concentrations of soloxolone amides for 48 h and then treated with a 1:20 dilution of TrypLE Express (Gibco, USA) in PBS for 3 min at 37°C. Non-adherent cells were then removed by a triple PBS wash, and the remaining adherent cells were fixed with 4% formaldehyde and stained with crystal violet dye (0.1% w/v). Images were captured using the iBright 1,500 Imaging System (Invitrogen, USA), and the cell-occupied area was calculated using ImageJ. Alternatively, the number of adherent cells was quantified using the MTT assay.

U87 primary tumorspheres = experiment: Primary tumorsphere growth, U87; assay type: cell-based, human
Procedure: For evaluation of spheroid growth, the bottom of the 96-well plate was covered with 1% agarose for non-adherent conditions. U87 cells (5,000 cells/well) were then seeded and allowed to form spheroids for 24 h, after which increasing concentrations of compound 7 (0–1,000 nM) were added (n = 8). Every other day of the 10-day experiment, fresh medium supplemented with compound 7 was added to half of the medium, and the spheroids were photographed using a camera-equipped ZEISS Primo Vert microscope (Carl Zeiss Microscopy GmbH, Jena, Germany). To assess the formation of secondary tumorspheres, cells were dissociated from primary tumorspheres after 4 days of compound 7 stimulation using TrypLE Express and were then seeded into agarose-coated 96-well plates (n = 8). On day 3, the resulting secondary spheroids were examined microscopically. Primary and secondary spheroid areas were quantified using ImageJ.

U87 glioblastoma cells = experiment: MTT cell viability assay, U87 cells, 48 h; assay type: cell-based, human
Procedure: Cells were seeded in quadruplicate in 96-well plates at 10,000 cells/well and allowed to adhere overnight. The medium was then replaced with serum-free DMEM containing increasing concentrations of soloxolone amides for 48 h. After incubation, 3-(4,5-dimethylthiazol-2-yl)-2,5-diphenyltetrazolium bromide (MTT dye) was added at a final concentration of 0.5 mg/mL and left for 2 h. The resulting formazan crystals were dissolved in DMSO and the optical density was measured at 570 nm using a Multiscan RC plate reader (Thermo LabSystems, Helsinki, Finland).

EPNT-5 cells = experiment: Colony formation assay, EPNT-5 cells; assay type: cell-based, mouse; details: 10 days
Procedure: as §1

U87 cells [3] = experiment: Annexin V-FITC/propidium iodide flow cytometry, U87, 48 h; assay type: cell-based, human
Procedure: (§2) To observe apoptosis and necrosis, U87 and U118 cells were stained with Annexin V-FITC and propidium iodide (ab14085; Abcam, Inc., Cambridge, MA, USA) after 48 h of incubation with compound 7 (0–2000 nM) according to the manufacturer’s protocol (n = 3). To quantify the total proportion of apoptotic cells in control and experimental groups, the events accumulated in the lower right quadrant (early apoptosis) and upper right quadrant (late apoptosis) were summarized.
(§3) After staining, 10,000 cells per sample were analyzed on a NovoCyte flow cytometer using NovoExpress software (ACEA Biosciences, Inc., USA).

U118 cells [4] = experiment: Colony formation assay, U118 cells; assay type: cell-based; details: Homo sapiens, 240 h, 10 days
Procedure: as §1

TGF-β1-treated U87 cells = experiment: ECM adhesion assay (Matrigel), U87 cells; assay type: cell-based, human; details: TGF-β1 50 ng/mL, 7 50 nM, 48 h
Procedure: Second, to assess cell adhesion to the extracellular matrix (ECM), an ECM adhesion assay was performed according to previously published method ([Guan et al., 2015]; [Hu et al., 2019]). Briefly, U87 cells were pretreated with TGF-β1 (50 ng/mL) and compound 7 (50 nM) for 48 h, and then seeded in 96-well plates coated with Matrigel (BD Biosciences, Bedford, MA, USA) at a concentration of 30,000 cells for 1 h (n = 3). After that, the wells were washed to remove non-adherent cells, adherent cells were fixed with formaldehyde, stained with crystal violet dye, and analyzed as described above.

U118 cells [5] = experiment: Annexin V-FITC/propidium iodide flow cytometry, U118, 48 h; assay type: cell-based, human
Procedure: as §2, §3

U87 cells [6] = experiment: MTT assay 72 h, 7 and TMZ alone and combined, synergy (HSA), U87; assay type: cell-based, human
Procedure: The drug synergy score was calculated for the dose-response matrix according to the highest single-agent (HSA) model using the SynergyFinder + web application (https://www.synergyfinder.org/).

[7] = Toxicity assessment in U87 glioblastoma-bearing mice; assay type: in vivo, athymic nude mice; details: 7 20 mg/kg i.p. or TMZ 10 mg/kg i.p. injected alone
Procedure: During the experiment, the general status and body weight of the animals were monitored. At the end of the experiment, livers and kidneys were collected and organ indices were calculated as (organ weight/body weight) × 100%, followed by the normalization of organ indices of experimental mice to organ indices of control mice.

[8] = U87 primary tumorspheres, 7 1,000 nM

Structure (SMILES): Cc1ccc(NC(=O)[C@@]2(C)CC[C@]3(C)CC[C@]4(C)[C@H](C(=O)C=C5[C@@]6(C)C=C(C#N)C(=O)C(C)(C)C6CC[C@]54C)[C@@H]3C2)cc1 (stereo partly drawn) [compound 7, N-p-tolyl-2-cyano-3,12-dioxo-18βH-olean-9(11),1(2)-dien-30-amide]
- inhibition at 0.05 µM (U87 cells [1]; Homo sapiens, U-87 MG, 240 h, U87, 7 50 nM): 48.7%
- inhibition at 0.1 µM (U87 cells [1]; Homo sapiens, U-87 MG, 240 h, U87, 7 100 nM): 74.2%
- colony area (U87 cells [1]; U87, 7 50 nM): 51.3%
- colony area (U87 cells [1]; U87, 7 1,000 nM): 3.9%
- TGF-β1-induced decrease in U118 cell adhesion to culture plastic [2]: effectively reversed
- increase of spheroid growth compared to control (U87 primary tumorspheres; U87 primary tumorspheres, 7 50 nM, p-value <0.05): 21%
- increase of spheroid growth compared to control (U87 primary tumorspheres; U87 primary tumorspheres, 7 100 nM, not statistically significant): 10.4%
- spheroid growth (U87 primary tumorspheres; U87 primary tumorspheres, 7 450 nM): stopping it after 4 days
- reduction of tumorsphere size compared to control by day 10 (U87 primary tumorspheres; [8]): 28.6%
- spheroid growth (U87 primary tumorspheres; [8]): completely blocking it
- concentration causing a large-scale reduction of spheroids (U87 primary tumorspheres; U87 tumorspheres): 1 µM
- relative cytotoxicity (U87 glioblastoma cells; 48 h of incubation, U87): high
- IC50 (U87 glioblastoma cells; Homo sapiens, U-87 MG, 48 h): 161 nM
- MNTC (U87 glioblastoma cells; Homo sapiens, U-87 MG, 48 h, read-out: non-toxic concentration that reduced U87 cell viability by less than 10%): 50 nM
- colony growth (EPNT-5 cells; EPNT-5, 7 450 nM): complete abrogation of colony growth
- colony growth (EPNT-5 cells; EPNT-5, 7 1,000 nM): complete abrogation of colony growth
- inhibition at 0.05 µM (EPNT-5 cells; Mus musculus, 240 h, EPNT-5, 7 50 nM): 56.1%
- inhibition at 0.1 µM (EPNT-5 cells; Mus musculus, 240 h, EPNT-5, 7 100 nM): 69%
- percentage of cells in the right quadrants (apoptosis) (U87 cells [3]; U87, 7 450 nM): 3.7%
- necrosis (upper left quadrant) (U87 cells [3]; U87, 7 1,000 nM): 23.4%
- percentage of cells in the right quadrants (apoptosis) (U87 cells [3]; U87, 7 1,000 nM): 40%
- necrosis (upper left quadrant) (U87 cells [3]; U87, 7 2000 nM): 14.8%
- percentage of cells in the right quadrants (apoptosis) (U87 cells [3]; U87, 7 2000 nM): 83.3%
- inhibition at 0.05 µM (U118 cells [4]; U118, 7 50 nM): 26.8%
- inhibition at 0.1 µM (U118 cells [4]; U118, 7 100 nM): 42.8%
- TGF-β1-induced adhesion of U87 cells to Matrigel (TGF-β1-treated U87 cells): effectively suppressed this induction to almost control levels
- percentage of cells in the right quadrants (apoptosis) (U118 cells [5]; U118, 7 450 nM): 82.5%
- percentage of cells in the right quadrants (apoptosis) (U118 cells [5]; U118, 7 1,000 nM): 95.6%
- percentage of cells in the right quadrants (apoptosis) (U118 cells [5]; U118, 7 2000 nM): 96.4%
- percentage of necrotic cells (U118 cells [5]; U118, at any concentration of 7 (450-2000 nM)): ≤ 3.5%
- IC50 (U87 cells [6]; Homo sapiens, U-87 MG, MTT): 197 nM
- reduction of the cytotoxic effect by NAC (U87 cells [6]; U87, NAC 2 mM, TMZ 125 μM, 7 100 nM): 56.2%
- toxic effects (body weight and organ indices) [7]: no toxic effects
